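Growth conditions: 96-well plates. Treatment: test compound, 48 hours, 5 concentrations. Analysis: linear interpolation between bracketing concentrations; unreached endpoints set to highest concentration. Definition used: TGI = concentration required for complete inhibition of growth.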
Assays:
Experiment in all cases: DTP human tumour cell line panel, 48 h
786-0 renal = system: 786-0 renal
A498 renal = system: A498 renal
A549 NSCLC = system: A549 NSCLC
ACHN renal = system: ACHN renal
BT-549 breast = system: BT-549 breast
CAKI-1 renal = system: CAKI-1 renal
CCRF-CEM leukemia = system: CCRF-CEM leukemia
COLO 205 colon = system: COLO 205 colon
DU-145 prostate = system: DU-145 prostate
EKVX NSCLC = system: EKVX NSCLC
HCC-2998 colon = system: HCC-2998 colon
HCT-116 colon = system: HCT-116 colon
HCT-15 colon = system: HCT-15 colon
HL-60(TB) leukemia = system: HL-60(TB) leukemia
HOP-62 NSCLC = system: HOP-62 NSCLC
HOP-92 NSCLC = system: HOP-92 NSCLC
HS 578T breast = system: HS 578T breast
HT29 colon = system: HT29 colon
IGROV1 ovarian = system: IGROV1 ovarian
K-562 leukemia = system: K-562 leukemia
KM12 colon = system: KM12 colon
LOX IMVI melanoma = system: LOX IMVI melanoma
M14 melanoma = system: M14 melanoma
MALME-3M melanoma = system: MALME-3M melanoma
MCF7 breast = system: MCF7 breast
MDA-MB-231 breast = system: MDA-MB-231 breast
MDA-MB-435 = system: MDA-MB-435
MDA-N = system: MDA-N
MOLT-4 leukemia = system: MOLT-4 leukemia
NCI-H226 lung = system: NCI-H226 lung
NCI-H23 lung = system: NCI-H23 lung
NCI-H460 lung = system: NCI-H460 lung
NCI-H522 lung = system: NCI-H522 lung
NCI/ADR-RES ovarian = system: NCI/ADR-RES ovarian
OVCAR-3 ovarian = system: OVCAR-3 ovarian
OVCAR-4 ovarian = system: OVCAR-4 ovarian
OVCAR-5 ovarian = system: OVCAR-5 ovarian
OVCAR-8 ovarian = system: OVCAR-8 ovarian
PC-3 prostate = system: PC-3 prostate
RPMI-8226 leukemia = system: RPMI-8226 leukemia
RXF 393 renal = system: RXF 393 renal
SF-268 CNS = system: SF-268 CNS
SF-295 CNS = system: SF-295 CNS
SF-539 CNS = system: SF-539 CNS
SK-MEL-2 melanoma = system: SK-MEL-2 melanoma
SK-MEL-28 melanoma = system: SK-MEL-28 melanoma
SK-MEL-5 melanoma = system: SK-MEL-5 melanoma
SK-OV-3 ovarian = system: SK-OV-3 ovarian
SN12C renal = system: SN12C renal
SNB-19 CNS = system: SNB-19 CNS
SNB-75 CNS = system: SNB-75 CNS
SR leukemia = system: SR leukemia
SW-620 colon = system: SW-620 colon
T-47D breast = system: T-47D breast
TK-10 renal = system: TK-10 renal
U251 CNS = system: U251 CNS
UACC-257 melanoma = system: UACC-257 melanoma
UACC-62 melanoma = system: UACC-62 melanoma
UO-31 renal = system: UO-31 renal

## CCC12C=CCN3CCC4(c5cc(C(c6ccc(OC)cc6)C6Cc7ccccc7N6)c(OC)cc5N(C)C4C(O)(C(=O)OC)C1O)C32 (configuration not stated)
786-0 renal
  TGI: > 100 µM
A498 renal
  TGI: 80.3 µM
A549 NSCLC
  TGI: > 100 µM
ACHN renal
  TGI: > 100 µM
BT-549 breast
  TGI: 80.6 µM
CAKI-1 renal
  TGI: > 100 µM
CCRF-CEM leukemia
  TGI: 16.6 µM
COLO 205 colon
  TGI: 27.5 µM
DU-145 prostate
  TGI: > 100 µM
EKVX NSCLC
  TGI: > 100 µM
HCC-2998 colon
  TGI: 57.5 µM
HCT-116 colon
  TGI: > 100 µM
HCT-15 colon
  TGI: > 100 µM
HL-60(TB) leukemia
  TGI: 24.1 µM
HOP-62 NSCLC
  TGI: 90.1 µM
HOP-92 NSCLC
  TGI: 8.14 µM
HS 578T breast
  TGI: > 100 µM
HT29 colon
  TGI: > 100 µM
IGROV1 ovarian
  TGI: 51.2 µM
K-562 leukemia
  TGI: 41.7 µM
KM12 colon
  TGI: 36.5 µM
LOX IMVI melanoma
  TGI: 36 µM
M14 melanoma
  TGI: > 100 µM
MALME-3M melanoma
  TGI: > 100 µM
MCF7 breast
  TGI: 28.3 µM
MDA-MB-231 breast
  TGI: 59.2 µM
MDA-MB-435
  TGI: 80.4 µM
MDA-N
  TGI: > 100 µM
MOLT-4 leukemia
  TGI: 18.2 µM
NCI-H226 lung
  TGI: > 100 µM
NCI-H23 lung
  TGI: > 100 µM
NCI-H460 lung
  TGI: 54.5 µM
NCI-H522 lung
  TGI: 98 µM
NCI/ADR-RES ovarian
  TGI: > 100 µM
OVCAR-3 ovarian
  TGI: 94.9 µM
OVCAR-4 ovarian
  TGI: > 100 µM
OVCAR-5 ovarian
  TGI: > 100 µM
OVCAR-8 ovarian
  TGI: > 100 µM
PC-3 prostate
  TGI: > 100 µM
RPMI-8226 leukemia
  TGI: 13.8 µM
RXF 393 renal
  TGI: 83.1 µM
SF-268 CNS
  TGI: > 100 µM
SF-295 CNS
  TGI: > 100 µM
SF-539 CNS
  TGI: 78.4 µM
SK-MEL-2 melanoma
  TGI: 68.8 µM
SK-MEL-28 melanoma
  TGI: > 100 µM
SK-MEL-5 melanoma
  TGI: 52 µM
SK-OV-3 ovarian
  TGI: > 100 µM
SN12C renal
  TGI: > 100 µM
SNB-19 CNS
  TGI: > 100 µM
SNB-75 CNS
  TGI: 33.7 µM
SR leukemia
  TGI: 27 µM
SW-620 colon
  TGI: > 100 µM
T-47D breast
  TGI: 9.98 µM
TK-10 renal
  TGI: 66.3 µM
U251 CNS
  TGI: 35.4 µM
UACC-257 melanoma
  TGI: > 100 µM
UACC-62 melanoma
  TGI: 31.4 µM
UO-31 renal
  TGI: 31.5 µM

## C[N+]12C=CC=C1C(N1CCCC1)c1scc(-c3ccc(F)cc3)c12 (configuration not stated)
786-0 renal
  TGI: > 100 µM
A498 renal
  TGI: > 100 µM
A549 NSCLC
  TGI: > 100 µM
BT-549 breast
  TGI: 88 µM
CAKI-1 renal
  TGI: > 100 µM
CCRF-CEM leukemia
  TGI: 4.4 µM
COLO 205 colon
  TGI: 51.3 µM
DU-145 prostate
  TGI: > 100 µM
EKVX NSCLC
  TGI: > 100 µM
HCT-116 colon
  TGI: > 100 µM
HOP-62 NSCLC
  TGI: > 100 µM
HS 578T breast
  TGI: > 100 µM
HT29 colon
  TGI: 45.3 µM
IGROV1 ovarian
  TGI: 36.1 µM
K-562 leukemia
  TGI: 26.5 µM
KM12 colon
  TGI: > 100 µM
LOX IMVI melanoma
  TGI: > 100 µM
M14 melanoma
  TGI: > 100 µM
MALME-3M melanoma
  TGI: > 100 µM
MCF7 breast
  TGI: 88.6 µM
MDA-MB-231 breast
  TGI: > 100 µM
MDA-MB-435
  TGI: > 100 µM
MDA-N
  TGI: > 100 µM
MOLT-4 leukemia
  TGI: 78.1 µM
NCI-H226 lung
  TGI: > 100 µM
NCI-H522 lung
  TGI: > 100 µM
NCI/ADR-RES ovarian
  TGI: > 100 µM
OVCAR-3 ovarian
  TGI: > 100 µM
OVCAR-5 ovarian
  TGI: > 100 µM
OVCAR-8 ovarian
  TGI: > 100 µM
PC-3 prostate
  TGI: > 100 µM
RPMI-8226 leukemia
  TGI: > 100 µM
RXF 393 renal
  TGI: > 100 µM
SF-268 CNS
  TGI: > 100 µM
SF-295 CNS
  TGI: > 100 µM
SK-MEL-2 melanoma
  TGI: 49 µM
SK-MEL-28 melanoma
  TGI: > 100 µM
SK-MEL-5 melanoma
  TGI: 36.2 µM
SK-OV-3 ovarian
  TGI: > 100 µM
SN12C renal
  TGI: > 100 µM
SNB-19 CNS
  TGI: > 100 µM
SNB-75 CNS
  TGI: > 100 µM
SR leukemia
  TGI: 31.9 µM
SW-620 colon
  TGI: > 100 µM
T-47D breast
  TGI: 80.5 µM
U251 CNS
  TGI: > 100 µM
UACC-62 melanoma
  TGI: > 100 µM
UO-31 renal
  TGI: > 100 µM

Source: PubChem BioAssay (NCI)
